According to US12492173B2, “Herbicidal substituted N-tetrazolyl aryl carboxamides” (Bayer Aktiengesellschaft, priority 2019, dated 2025):

Assays:
Alopecurus myosuroides = assay: Pre-emergence herbicidal action, ALOMY; format: in vivo; parameters: key: % activity: 100 = plants have died, 0 = like control plants; conditions: comparative experiment
Source text: 1. Pre-Emergence Herbicidal Action Against Harmful Plants Seeds of monocotyledonous and dicotyledonous weed plants and crop plants are laid out in sandy loam soil in wood-fiber pots and covered with soil. The compounds of the invention, formulated in the form of wettable powders (WP) or as emulsion concentrates (EC), are then applied to the surface of the covering soil in the form of an aqueous suspension or emulsion at a water application rate equating to 600 to 800 l/ha, with addition of 0.2% wetting agent. After the treatment, the pots are placed in a greenhouse and kept under good growth conditions for the trial plants. The damage to the test plants is scored visually after a test period of 3 weeks by comparison with untreated controls (herbicidal activity in percent (%): 100% activity=the plants have died, 0% activity=like control plants). […] The tables below illustrate, in an exemplary manner, the […] herbicidal action of the compounds according to the invention, the herbicidal activity being stated in percent. [table] In the experiments that follow, herbicidal action of numerous inventive compounds and the known compounds that are structurally closest from D1 (WO 2012/028579 A1) and D2 (WO 2018/202535 A1) were compared under the above-specified conditions by the pre-emergence and post-emergence method. The example numbers given in the tables relate to the compounds disclosed in the respective documents. In addition to the compounds disclosed in D1 and D2, the following compounds V-1 to V-14 that are encompassed by D1 or D2 but are not compounds specified therein were used in the comparative experiments: • V-1: 2-(methylsulfanyl)-3-(methylsulfinyl)-N-(1-methyl-1H-tetrazol-5-yl)-4-(trifluoromethyl)benzamide • V-2: 2-(methylsulfanyl)-3-(methylsulfonyl)-N-(1-methyl-1H-tetrazol-5-yl)-4-(trifluoromethyl)benzamide • V-3: 2,3-bis(ethylsulfanyl)-N-(1-methyl-1H-tetrazol-5-yl)-4-(trifluoromethyl)benzamide • V-4: 2-chloro-3-(ethylsulfanyl)-N-(1-methyl-1H-tetrazol-5-yl)-4-(trifluoromethyl)benzamide • V-5: 2-chloro-4-iodo-3-(methylsulfanyl)-N-(1-methyl-1H-tetrazol-5-yl)benzamide • V-6: 2-chloro-4-iodo-3-(methylsulfinyl)-N-(1-methyl-1H-tetrazol-5-yl)benzamide • V-7: 2-chloro-4-iodo-3-(methylsulfonyl)-N-(1-methyl-1H-tetrazol-5-yl)benzamide • V-8: 2-bromo-3-(methylsulfanyl)-N-(1-methyl-1H-tetrazol-5-yl)-4-(trifluoromethyl)benzamide • V-9: 2-bromo-3-(methylsulfinyl)-N-(1-methyl-1H-tetrazol-5-yl)-4-(trifluoromethyl)benzamide • V-10: 2-bromo-3-(methylsulfonyl)-N-(1-methyl-1H-tetrazol-5-yl)-4-(trifluoromethyl)benzamide • V-11: 2-bromo-3-(ethylsulfanyl)-N-(1-methyl-1H-tetrazol-5-yl)-4-(trifluoromethyl)benzamide • V-12: 2-bromo-3-(ethylsulfinyl)-N-(1-methyl-1H-tetrazol-5-yl)-4-(trifluoromethyl)benzamide • V-13: 2-bromo-3-(ethylsulfonyl)-N-(1-methyl-1-1H-tetrazol-5-yl)-4-(trifluoromethyl)benzamide • V-14: 2-cyclopropyl-3-(ethylsulfanyl)-N-(1-methyl-1H-tetrazol-5-yl)-4-(trifluoromethyl)benzamide Herbicidal Pre-Emergence Action: […]

Avena fatua = assay: Pre-emergence herbicidal action, AVEFA; format: in vivo; conditions: comparative experiment, 20 g of a.i./ha
Source text: 1. Pre-Emergence Herbicidal Action Against Harmful Plants Seeds of monocotyledonous and dicotyledonous weed plants and crop plants are laid out in sandy loam soil in wood-fiber pots and covered with soil. The compounds of the invention, formulated in the form of wettable powders (WP) or as emulsion concentrates (EC), are then applied to the surface of the covering soil in the form of an aqueous suspension or emulsion at a water application rate equating to 600 to 800 l/ha, with addition of 0.2% wetting agent. After the treatment, the pots are placed in a greenhouse and kept under good growth conditions for the trial plants. The damage to the test plants is scored visually after a test period of 3 weeks by comparison with untreated controls (herbicidal activity in percent (%): 100% activity=the plants have died, 0% activity=like control plants). […] The tables below illustrate, in an exemplary manner, the post-emergence herbicidal action of the compounds according to the invention, the herbicidal activity being stated in percent. [table] In the experiments that follow, herbicidal action of numerous inventive compounds and the known compounds that are structurally closest from D1 (WO 2012/028579 A1) and D2 (WO 2018/202535 A1) were compared under the above-specified conditions by the pre-emergence and post-emergence method. […]

## Cn1nnnc1NC(=O)c1ccc(I)c(C[S+](C)[O-])c1Cl (racemic) [Example 1-363]
Alopecurus myosuroides; 20 g of a.i./ha
  Herbicidal action against ALOMY: 50

## CC[S+]([O-])Cc1c(C(F)(F)F)ccc(C(=O)Nc2nnnn2C)c1Br (racemic) [Example 1-384]
Alopecurus myosuroides; 80 g of a.i./ha
  Herbicidal action against ALOMY: 100

## CCSCc1c(C(F)(F)F)ccc(C(=O)Nc2nnnn2C)c1Cl [Example 1-299]
Alopecurus myosuroides; 20 g of a.i./ha
  Herbicidal action against ALOMY: 80

## CSCc1c(C(F)F)ccc(C(=O)Nc2nnnn2C)c1Cl [Example 1-320]
Avena fatua
  Herbicidal action against AVEFA: 70

## CCS(=O)(=O)Cc1c(C(F)(F)F)ccc(C(=O)Nc2nnnn2C)c1Br [Example 1-385]
Alopecurus myosuroides; 80 g of a.i./ha
  Herbicidal action against ALOMY: 100

## CCS(=O)(=O)c1c(C(F)(F)F)ccc(C(=O)Nc2nnnn2C)c1Br [Example V-13, 2-bromo-3-(ethylsulfonyl)-N-(1-methyl-1-1H-tetrazol-5-yl)-4-(trifluoromethyl)benzamide, reference compound]
Alopecurus myosuroides; 80 g of a.i./ha
  Herbicidal action against ALOMY: 0
